Laboratory results taken from US7740882B2, “Enhanced oral and transcompartmental delivery of therapeutic or diagnostic agents” (priority 2001, dated 2010).
Entries after “also recorded” stand apart in the source; their conditions may differ. Read-outs that look alike come from different tables or passages of the source. Non-standard residues stand in square brackets, D forms with d.

How the values were obtained:
SMVT [1] = biological target: T1, SMVT (Homo sapiens, UniProt Q9Y289); settings: read-out: Ki, competitive inhibition of RI-K(biotin)-Tat9 transport; Caco-2, inhibitors at 10 and 20 μM
T1 sequence (Q9Y289 1-635): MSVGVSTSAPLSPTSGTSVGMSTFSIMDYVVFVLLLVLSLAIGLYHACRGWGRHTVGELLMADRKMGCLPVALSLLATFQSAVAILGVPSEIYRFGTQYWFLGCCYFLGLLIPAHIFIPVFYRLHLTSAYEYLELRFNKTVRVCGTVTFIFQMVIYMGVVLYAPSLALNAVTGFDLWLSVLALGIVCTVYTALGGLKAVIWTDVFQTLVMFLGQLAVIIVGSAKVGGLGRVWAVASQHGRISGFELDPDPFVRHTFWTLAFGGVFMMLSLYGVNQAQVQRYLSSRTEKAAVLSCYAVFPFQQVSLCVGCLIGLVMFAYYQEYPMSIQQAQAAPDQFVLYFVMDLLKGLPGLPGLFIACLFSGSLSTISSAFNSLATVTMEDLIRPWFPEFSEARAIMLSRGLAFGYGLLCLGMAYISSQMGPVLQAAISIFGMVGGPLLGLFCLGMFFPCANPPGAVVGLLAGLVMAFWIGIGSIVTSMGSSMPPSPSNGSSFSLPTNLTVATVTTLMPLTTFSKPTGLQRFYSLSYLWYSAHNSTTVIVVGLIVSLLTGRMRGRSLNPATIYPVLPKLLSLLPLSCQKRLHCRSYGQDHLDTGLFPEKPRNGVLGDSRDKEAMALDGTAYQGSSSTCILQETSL
Text: [formula] where Pe is the effective permeability of the substrate transported, Cs is the substrate concentration and Pm and Pc represent the passive and carrier-mediated component of the permeability. All data were initially fitted to a 3-parameter model (Pc, Pm, Km for Caco-2 studies, Jmax, Pm, Km for CHO studies). […] The data from inhibition studies were transformed into Lineweaver-Burke plots to determine the nature of the inhibition process (competitive, non-competitive). Subsequently, the inhibition constant (Ki) values were estimated using Dixon plots. Data used for the above plots were weighted using 1/SEM^2 (S.E.M=Standard Error of Mean). The kinetic parameters for CHO cell studies were estimated by performing non-linear regression using the equation J=Jmax*[C]/(Km+[C])+Pm*C, where J is the rate of permeant uptake, Pm is the passive uptake component and [C] is the substrate concentration. Data were weighted using 1/S.E.M^2.

SMVT [2] = biological target: T1, SMVT; settings: read-out: Ki, competitive inhibition of biotin-PEG-3400 transport; Caco-2, inhibitors at 10 and 20 μM
Text: Data Analysis. The Michaelis-Menten kinetic parameters for the Caco-2 cell monolayer transport studies were estimated by performing weighted non-linear regression with Scientist software (MicroMath, Utah) using the following equation: Pe=Pm+Pc/(1+C/Km), where Pe is the effective permeability of the substrate transported, C is the substrate concentration and Pm and Pc represent the passive and carrier-mediated component of the permeability. The data from inhibition studies were transformed into Lineweaver-Burke plots to determine the nature of the inhibition process (competitive, non-competitive). […] Data used for the above plots were weighted using 1/S.E.M.^2. The kinetic parameters for CHO cell studies were estimated by performing non-linear regression using the equation J=Jmax*[C]/(Km+[C]), where J is the rate of permeant uptake, Jmax is the maximal uptake velocity and [C] is the substrate concentration. Data were weighted using 1/S.E.M.^2. Statistical analyses were performed using Jandel SigmaStat, version 2.03. One-way analysis of variance was used to test the difference in the mean values of uptake using p<0.05 as the significance level for all tests.

SMVT [3] = biological target: T1, SMVT; experiment: Inhibition of substrate uptake in CHO/hSMVT cells by 50 μM SMVT substrates; assay type: in vitro ADME; design: expressed in transfected cells; host or cells: CHO cells (ATCC), transient Lipofectamine transfection; plasmid was a gift of Dr. Puttur D. Prasad
superoxide production = settings: literature value; read-out: EC50 for superoxide production (Klinker et al., 1996); cited from earlier work
[4] = test system: bovine brain microvessel endothelial cells (BBMECs); experiment: Transport (permeability) across BBMEC monolayers, in vitro BBB model
Protocol: Non-biotinylated PEGs were used in the control studies.
Isolation and culture of BBMECs. Bovine Brain Microvessel Endothelial Cells (BBMECs) were used as an in vitro model of BBB. BBMECs were isolated from bovine brain by a two-step enzymatic method and the cells were cultured on collagen coated Transwell™ plates or polystyrene plates in an atmosphere of 95% air and 5% CO2 at 37° C. Transendothelial electrical resistance (TEER) and several molecular markers were used to validate the integrity of the cell culture system.
The cells were cultured on 12-well Transwell™ filters for 7-8 days and transport was evaluated. […] All studies were performed at 37° C.

[5] = biological target: T2, human sodium dependent multivitamin transporter, hSMVT (Homo sapiens, UniProt Q9Y289); experiment: Uptake in CHO cells transiently transfected with hSMVT (CHO/hSMVT); settings: not concentration dependent controls
T2 sequence (Q9Y289 1-635): T1 sequence (Q9Y289 1-635)
Protocol: (§1) CHO Cell Uptake Studies CHO cells transiently transfected with hSMVT (CHO/hSMVT) were washed twice with 25 mM uptake buffer, containing 25 mM Hepes/Tris pH 7.5, 140 mM NaCl, 5.4 mM KCl, 1.8 CaCl2, 0.8 mM MgSO4 and 5 mM glucose, approximately 48 hours post-transfection. Subsequently, the cells were incubated with the permeant at 37° C. for 10 minutes. Uptake was stopped by washing the cells thrice with ice-cold buffer. Non-specific uptake was measured in parallel experiments with the control pSPORT vector-transfected CHO cells. Finally, the cells were solubilized by 0.1% v/v Triton X-100, and 0.6 ml was used for scintillation counting. From the remaining volume, 10 μl of solution was taken from each well and protein concentration was determined using the Bio-Rad reagent according to the Bradford technique [M. Bradford, A rapid and sensitive method of quantitation of microgram quantities of protein utilizing the principle of protein-dye binding, Anal. Biochem. 72 (1976) 248]. Bovine serum albumin was used as the standard.
Parallel uptake experiments were performed using CHO/pSPORT control cells.
as §1, with “hSMVT” for “hSMVT (CHO/hSMVT)”, “glucose.” for “glucose, approximately 48 hours post-transfection.”, “Washing” for “Uptake was stopped by washing”, “three times” for “thrice”, “buffer stopped drug uptake.” for “buffer.”, “manufacturer's instructions.” for “Bradford technique [M. Bradford, A rapid and sensitive method of quantitation of microgram quantities of protein utilizing the principle of protein-dye binding, Anal. Biochem. 72 (1976) 248].”
as §1, with “Studies.” for “Studies”, “glucose.” for “glucose, approximately 48 hours post-transfection.”, “manufacturer's instructions.” for “Bradford technique [M. Bradford, A rapid and sensitive method of quantitation of microgram quantities of protein utilizing the principle of protein-dye binding, Anal. Biochem. 72 (1976) 248].”

CHO/pSPORT cells = experiment: Non-specific uptake in vector-transfected control CHO/pSPORT cells
Protocol: as §1, with “From the remaining volume, 10 μl of solution was taken from each well and protein concentration was determined using the Bio-Rad reagent according to the Bradford technique [M. Bradford, A rapid and sensitive method of quantitation of microgram quantities of protein utilizing the principle of protein-dye binding, Anal. Biochem. 72 (1976) 248].” left out
CHO Cell Uptake Studies CHO cells transiently transfected with hSMVT were washed twice with 25 mM uptake buffer, containing 25 mM Hepes/Tris pH 7.5, 140 mM NaCl, 5.4 mM KCl, 1.8 CaCl2, 0.8 mM MgSO4 and 5 mM glucose. […] Non-specific uptake was measured in parallel experiments with the control pSPORT vector-transfected CHO cells. […] From the remaining volume, 10 μl of solution was taken from each well and protein concentration was determined using the Bio-Rad reagent according to the manufacturer's instructions. […]
CHO Cell Uptake Studies. […] Non-specific uptake was measured in parallel experiments with the control pSPORT vector-transfected CHO cells. […]

[6] = biological target: T3, fMLF receptor on differentiated HL-60 cells (Homo sapiens, UniProt P21462); experiment: Competitive receptor binding assay with fML[3H]F
T3 construct: endogenous in cells; host or cells: HL-60 cells differentiated with 1.3% DMSO for 48 h; whole cells
T3 sequence (P21462 1-350): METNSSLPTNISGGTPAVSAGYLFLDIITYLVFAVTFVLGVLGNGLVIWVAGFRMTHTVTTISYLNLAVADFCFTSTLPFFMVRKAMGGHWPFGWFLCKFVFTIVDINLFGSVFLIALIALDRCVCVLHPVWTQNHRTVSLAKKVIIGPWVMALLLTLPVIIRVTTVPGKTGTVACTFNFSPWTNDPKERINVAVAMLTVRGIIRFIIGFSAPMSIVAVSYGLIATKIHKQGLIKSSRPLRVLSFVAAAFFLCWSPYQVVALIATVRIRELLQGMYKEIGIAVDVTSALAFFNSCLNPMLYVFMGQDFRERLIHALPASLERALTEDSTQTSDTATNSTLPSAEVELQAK

[7] = test system: differentiated HL-60 cells; experiment: Intracellular calcium assay (45Ca release from intracellular stores); assay type: cell-based, human; settings: differentiated HL-60 cells, calcium release; read-out: Cell Activation EC50
Protocol: Intracellular Calcium Assay. HL-60 cells (2×10^5 cells/mL) were grown in the presence of 1.3% DMSO for 5 days. For each time course experiment, 2×10^6 cells were resuspended in 5 mL of HBSS containing 2 mCi/mL of ^45CaCl2 as the sole source of calcium. After 90 min incubation at 37° C., cells were washed twice as above with cold HBSS. […] Cell pellets were treated with 0.5% Triton X-100/0.1 M NaOH and centrifuged in tubes containing 0.3 mL of 10% sucrose and radioactivity associated with the pellets was measured; this represents vesicle-associated ^45Ca. The top portion of the tube, which contained the cytoplasmic ^45Ca was also measured.

[8] = test system: differentiated HL-60 cells; experiment: Uptake of DIG conjugates by differentiated HL-60 cells (DIG ELISA); assay type: cell-based, human; settings: 333 nM, 30 min, 37° C.
Protocol: (§2) Uptake by HL-60, Jurkat and Peritoneal Cells. Human Jurkat T-cell growth conditions were the same as for HL-60 cells, except that the subcultivation ratio was 1:3. Jurkat cells (2×10^5) or fully differentiated HL-60 cells were washed twice with PBS and incubated in binding buffer (see above) with conjugate for 30 min at 37° C. Each conjugate (1 μg, dissolved at a concentration of 333 nM) was used in these experiments. Cells were lysed, the membranes and cell debris were removed by centrifugation (5 min. at 14,000×g) and the enzyme-linked immunosorbent assay (ELISA) for DIG was performed on the supernatant as described below. In order to study primary peritoneal cells, BALB/c mice were injected in the peritoneal cavity with 5 μg of PEG/A-DIG4-fMLF4 (n=3 mice), or PEG/A-DIG4 (n=4 mice). After 1 h, the cavity was flushed with medium and cells were collected and washed twice with cold PBS, as described above.
(§3) Cells were resuspended in 100 μL of PBS, containing 0.6% Tween 20, vortexed briefly and kept on ice for 30 min. […] Uptake of DIG was determined by ELISA of the supernatant. […] DIG content was proportional to the difference in absorbance at 495 nm and 450 nm. […] In order to account for the potential different amounts of peritoneal cells from each mouse, the results were normalized to the amount of protein, as measured with the Bradford assay (BioRad, Hercules Calif.).

Jurkat T-cells = experiment: Uptake of DIG conjugates by Jurkat cells (DIG ELISA); assay type: cell-based, human; settings: 333 nM, 30 min
Protocol: as §2, §3

[9] = test system: peritoneal cells (macrophages); experiment: Uptake by peritoneal cells after intraperitoneal injection (DIG ELISA); assay type: in vivo, BALB/c mice
Protocol: as §2, §3

Protocol for Caco-2 cell monolayers: Caco-2 Cell Transport Studies An Ussing-type diffusion chamber system (Harvard Apparatus, Natick, Mass.) was used to perform transport studies. The apical solution was a MES Ringer's buffer (pH 6.5) consisting of 114.0 mM NaCl, 5.0 mM KCl, 1.1 mM MgSO4, 1.25 mM CaSO4, and 15 mM 2-(N-morpholino)ethanesulfonic acid (MES). The basolateral solution was a Ringer's buffer (pH 7.4) consisting of 114.0 mM NaCl, 5.0 mM KCl, 1.65 mM Na2HPO4, 0.3 mM NaH2PO4, 25 mM NaHCO3, 1.1 mM MgSO4, and 1.25 mM CaSO4. Both buffers contained 25 mM glucose and were adjusted to 290 mOsm/kg using a vapor pressure osmometer (Wescor Inc, Logan, Utah). For transport experiments using filters with cell monolayers, the inserts were rinsed with Ringer's buffet containing 25 mM glucose three times over a 20 min period at room temperature. The TEER was measured for each monolayer before it was mounted onto the diffusion chamber, which was pre-warmed to 37° C. by placement on the heating blocks. The volume of each half-chamber was 5 ml and the surface area of the Snapwell™ filters available for drug transport was 1 cm^2. […] The donor solution consisted of radiolabeled permeant in the apical buffer [apical (AP) to basolateral (BL) study]. Starting at 30 min, samples were taken from the receptor chamber every 15 min until the end of the experiment (105 min). A minimum of three monolayers was used to determine the permeability of test compound in each study and sample analysis was performed using scintillation counting (Perkin Elmer, Gaithersburg, Md.).
The Michaelis-Menten kinetic parameters of Caco-2 and CHO cell transport were then estimated using non-linear regression.
Prior to experimentation, diffusion chambers mounted with the Snapwells™ containing Caco-2 cells were equilibrated at 5° C., 10° C., 15° C., 25° C. and 37° C.
[formula] where Pe is the effective permeability of the substrate transported, Cs is the substrate concentration and Pm and Pc represent the passive and carrier-mediated component of the permeability. All data were initially fitted to a 3-parameter model (Pc, Pm, Km for Caco-2 studies, Jmax, Pm, Km for CHO studies).
Caco-2 Cell Transport Studies An Ussing-type diffusion chamber system (Harvard Apparatus, Natick, Mass.) was used to perform transport studies. The apical solution was a MES Ringer's buffer (pH 6.5) consisting of 114.0 mM NaCl, 5.0 mM KCl, 1.1 mM MgSO4, 1.25 mM CaSO4, and 15 mM 2-(N-morpholino)ethanesulfonic acid (MES). The basolateral solution was a Ringer's buffer (pH 7.4) consisting of 114.0 mM NaCl, 5.0 mM KCl, 1.65 mM Na2HPO4, 0.3 mM NaH2PO4, 25 mM NaHCO3, 1.1 mM MgSO4, and 1.25 mM CaSO4. Both buffers contained 25 mM glucose and were adjusted to 290 mOsm/kg using a vapor pressure osmometer (Wescor Inc, Logan, Utah). For transport experiments using filters with cell monolayers, the inserts were rinsed with Ringer's buffer containing 25 mM glucose three times over a 20 min period at room temperature. The TEER was measured for each monolayer before it was mounted onto the diffusion chamber, which was pre-warned to 37° C. by placement on the heating blocks.

Q: For `N[C@@H](CCCCNC(=O)CCCC[C@@H]1SC[C@@H]2NC(=O)N[C@@H]21)C(=O)O` [biocytin], which Ki (SMVT [1]) is on record?
A: 3270 nM

Q: What about the Ki (SMVT [2]) of the same molecule?
A: 14000 nM

Q: What about the “inhibition of RI-K(biotin)-Tat9 uptake” value (SMVT [3]; 0.1 μM RI-K(biotin)-Tat9, inhibitor 50 μM) of the same molecule?
A: significantly inhibited; also recorded: significantly lowered (p<0.001)

Q: And the “inhibition of biotin-PEG-3400 uptake” value (SMVT [3]; 0.1 μM biotin-PEG-3400, inhibitor 50 μM)?
A: significantly (p<0.01) inhibited

Q: What about the “inhibition of PEG:(RI-K(biotin)-Tat9)8 uptake” value (SMVT [3]; 0.1 μM conjugate, inhibitor 50 μM) of the same molecule?
A: significantly lower (p<0.05)

Q: Which EC50 (superoxide production) does the source give for `CSCC[C@H](NC=O)C(=O)N[C@@H](CC(C)C)C(=O)N[C@@H](Cc1ccccc1)C(=O)O` [fMLF, N-formyl-methionine-leucine-phenylalanine] here?
A: 15 to 30 nM

Q: Which results are given for “N-acetyl-D-Lys-D-Arg-D-Arg-D-Arg-D-Gln-D-Arg-D-Arg-D-Lys-D-Lys-D-Arg-NH2 (Ac-[dK][dR][dR][dR][dQ][dR][dR][dK][dK][dR]-NH2; SMILES CC(=O)N[C@H](CCCCN)C(=O)N[C@H](CCCNC(=N)N)C(=O)N[C@H](CCCNC(=N)N)C(=O)N[C@H](CCCNC(=N)N)C(=O)N[C@H](CCC(N)=O)C(=O)N[C@H](CCCNC(=N)N)C(=O)N[C@H](CCCNC(=N)N)C(=O)N[C@H](CCCCN)C(=O)N[C@H](CCCCN)C(=O)N[C@H](CCCNC(=N)N)C(N)=O) [RI-K-Tat9]”?
A: Papp [4]: 7.3 ×10⁻⁶ cm/s; uptake in CHO/hSMVT cells [5]: < 1 pmol/mg protein/10 min; uptake in CHO/pSPORT cells (CHO/pSPORT cells): < 1 pmol/mg protein/10 min

Q: With PEG-3350 [reference compound] as the molecule, how does the “absorptive/effective permeability (Pe)” value (Caco-2 cell monolayers) read?
A: ~1 ×10⁻⁶ cm/s

Q: For “PEG/A-fMLF4-DIG4: linear PEG-aspartate copolymer bearing four fMLF and four digoxigenin residues”, which Kd ([6]; Kd multiplied by average number of fMLF moieties, read-out: Relative Avidity Kd/fMLP) is on record?
A: 4.8 nM

Q: What about the Kd ([6]; differentiated HL-60 cells, competition with fML[3H]F, read-out: Avidity Kd) of the same molecule?
A: 1.2 nM

Q: What about the “Avidity Activation EC50/Kd” value ([6]; ratio of EC50 (calcium) to Kd) of the same molecule?
A: 4.92

Q: What about the EC50 [7] of the same molecule?
A: 5.9 nM

Q: What about the “conjugate bound and/or internalized” value [8] of the same molecule?
A: 18%

Q: What about the conjugate accumulated (Jurkat T-cells) of the same molecule?
A: 1.3%

Q: And the “administered conjugate taken up by peritoneal cells” value ([9]; BALB/c mice, 5 μg i.p., 1 h)?
A: 17%

Q: What about the “DIG accumulation, fold over non-targeted conjugate PEG/A-DIG8” value ([9]; non-activated peritoneal cells) of the same molecule?
A: ~5 fold
